{
  "source": "patent US20210002725A1",
  "about": "“METHODS FOR THE DIAGNOSIS OF METABOLIC DISORDERS USING EPIMETABOLIC SHIFTERS, MULTIDIMENSIONAL INTRACELLULAR MOLECULES, OR ENVIRONMENTAL INFLUENCES” (Berg LLC, priority 2009, published 2021)",
  "key": {"Hif1 alpha": {"system": "Hif1 alpha", "assay": "Western blot of Hif1 alpha levels in cells treated with Coenzyme Q10", "type": "cell-based, human", "conditions": "whole cell lysates of normal cells", "method": "The Actin blots were stripped by incubating for 30 minutes with methanol, followed by two 10 minute washes with TBS-T, then 30 minutes of incubation with Stripping buffer at 50 deg C., and followed by two washes with 100 ml or more of TBS-T for 30′ each. The blots were scanned in laser scanner to check for complete stripping. The blots were activated with methanol for 5 seconds, washed with water for 5 minutes, and TBST for 15 minutes. The blots were blocked for 1 hour with 5% blocking reagent in TBS-T at room temperature and then washed 3 times with TBS-T (1×-15′; 2×5′ each) and probed with the primary antibody for Hif 1 alpha, Caspase 3 or PDHB in 5% BSA (at 1:200 by incubation overnight at 4 deg C. with gentle shaking. The primary antibody for Hif 1 alpha (Abcam ab2185; antirabbit) was at 1:500 dilution in 5% BSA. The primary antibody for Caspase 3 (Santacruz sc7272; antirabbit) was at 1:200 dilution in 5% BSA. The primary antibody for Pyruvate Dehydrogenase beta (PDHB) (Novus Biologicals H00005162-M03; antimouse) was at 1:500 dilution in 5% BSA. After incubation with primary antibodies, the membranes were washed 3 times with TBS-T (1×-15′; 2×5′ each) and probed with the secondary antibody (PDHB antimouse; Hif 1a and Caspase 3 antirabbit; 1:10,000 dilution) for 1 h at room temperature. […]"}, "SCC cells": {"system": "SCC cells", "conditions": "100 μM Q10; 6 and/or 24 hr"}},
  "note": "“Also recorded” adds a separate entry of the source.",
  "data": [
    {"smiles": "COC1=C(OC)C(=O)C(C/C=C(\\C)CC/C=C(\\C)CC/C=C(\\C)CC/C=C(\\C)CC/C=C(\\C)CC/C=C(\\C)CC/C=C(\\C)CC/C=C(\\C)CC/C=C(\\C)CCC=C(C)C)=C(C)C1=O", "note": "[Q10, Coenzyme Q10]", "values": [
      {"measurement": "Hif1a lower band", "setting": "Hif1 alpha", "result": "showed a decrease"},
      {"measurement": "Response (direction of protein spot change)", "setting": "SCC cells", "result": "Increase; also recorded: hr, decrease"}
    ]}
  ]
}
